Results: paper PMC10435442, “Developing multitarget coumarin based anti-breast cancer agents: synthesis and molecular modeling study” (Scientific Reports, 2023)
In brackets after ≈: the same amount, converted by molar mass. Several values for one entry are separate records, joined by “and”; a condition that tells them apart may be missing. Equal values may be shown once. Read-outs that look alike come from different tables or passages of the source.

Experiments:
in vitro = conditions: human
MCF-7 = test: MTT cytotoxicity assay, MCF-7; conditions: for IC50: Homo sapiens; for anti-proliferative activity against MCF-7 (in words): SAR discussion
MDA-MB-231 = test: MTT cytotoxicity assay, MDA-MB-231; conditions: for IC50: Homo sapiens; for % viability: MDA; for anti-proliferative activity against MDA-MB-231 (in words): SAR discussion
MCF-10A = test: MTT cytotoxicity assay, nonmalignant MCF-10A; conditions: for IC50: read-out: MCF-10A IC50, MTT, nonmalignant MCF-10A;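 as to all read-outs here: MTT assay with absorbance read at 570 nm after 48 h exposure of cells to serial compound concentrations at 37 °C, testing selectivity against nonmalignant versus cancer cells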
EGFR = EGFR (Homo sapiens, UniProt P00533); test: In vitro EGFR enzyme inhibition assay (ELISA); conditions: for EGFR %inh: lab report 01-11-2021
[1] = MCF-10A cells (nonmalignant breast)
[2] = MCF7, read-out: cytotoxicity_IC50 mcf7
[3] = MDA-MB-231, read-out: MDA-MBA-231 IC50
[4] = MDA-MB-231, read-out: cytotoxicity_IC50 MDA
[5] = EGFR IC50, lab report 01-11-2021, 10 compounds

EGFR, sequence (P00533 25-1210): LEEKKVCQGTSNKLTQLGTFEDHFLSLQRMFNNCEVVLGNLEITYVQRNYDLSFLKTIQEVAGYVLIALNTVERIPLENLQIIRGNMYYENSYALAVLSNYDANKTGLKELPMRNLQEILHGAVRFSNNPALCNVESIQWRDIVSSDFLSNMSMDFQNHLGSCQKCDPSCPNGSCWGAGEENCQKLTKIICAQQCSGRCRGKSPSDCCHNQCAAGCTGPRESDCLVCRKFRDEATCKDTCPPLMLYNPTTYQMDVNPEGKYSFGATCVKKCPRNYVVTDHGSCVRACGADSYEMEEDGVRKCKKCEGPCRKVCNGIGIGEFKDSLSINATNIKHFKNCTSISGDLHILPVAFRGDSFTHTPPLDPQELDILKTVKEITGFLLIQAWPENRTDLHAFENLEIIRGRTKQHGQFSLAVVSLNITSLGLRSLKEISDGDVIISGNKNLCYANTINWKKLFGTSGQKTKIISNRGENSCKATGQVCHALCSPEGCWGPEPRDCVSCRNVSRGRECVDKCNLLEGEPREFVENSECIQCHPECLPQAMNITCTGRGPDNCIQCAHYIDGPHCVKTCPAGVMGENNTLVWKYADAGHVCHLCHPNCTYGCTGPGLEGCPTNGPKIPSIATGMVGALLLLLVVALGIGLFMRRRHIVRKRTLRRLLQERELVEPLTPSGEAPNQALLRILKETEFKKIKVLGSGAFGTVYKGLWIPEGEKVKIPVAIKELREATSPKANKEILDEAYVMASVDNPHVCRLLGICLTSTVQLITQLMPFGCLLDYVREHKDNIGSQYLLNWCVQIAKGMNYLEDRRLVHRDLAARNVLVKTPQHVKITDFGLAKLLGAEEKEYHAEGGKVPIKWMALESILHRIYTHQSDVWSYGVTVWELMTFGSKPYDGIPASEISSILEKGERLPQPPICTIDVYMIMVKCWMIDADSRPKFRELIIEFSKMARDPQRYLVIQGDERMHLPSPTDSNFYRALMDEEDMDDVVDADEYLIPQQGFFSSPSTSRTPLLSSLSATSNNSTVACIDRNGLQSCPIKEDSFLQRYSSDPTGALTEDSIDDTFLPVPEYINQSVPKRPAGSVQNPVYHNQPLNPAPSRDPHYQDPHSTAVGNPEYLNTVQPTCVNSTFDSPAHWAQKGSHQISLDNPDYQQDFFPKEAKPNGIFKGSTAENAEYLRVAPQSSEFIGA

Row | IC50 at 48 h (in vitro; [1]) | SMILES | viability at 48 h, 0.4 ug (in vitro; [1]) | viability at 48 h, 1.6 ug (in vitro; [1]) | viability at 48 h, 6.25 ug (in vitro; [1]) | viability at 48 h, 25 ug (in vitro; [1]) | viability at 48 h, 100 ug (in vitro; [1]) | IC50 (MCF-7; MCF7, read-out: MCF-7 IC50) | IC50 (MCF-7; [2]) | % viability (MCF-7; MCF7, 0.4ug) | % viability (MCF-7; MCF7, 1.6ug) | % viability (MCF-7; MCF7, 6.3ug) | % viability (MCF-7; MCF7, 25ug) | % viability (MCF-7; MCF7, 100ug) | IC50 (MDA-MB-231; [3]) | IC50 (MDA-MB-231; [4]) | % viability (MDA-MB-231; 0.4ug (log conc. -0.41)) | % viability (MDA-MB-231; 1.6ug (log conc. 0.19)) | % viability (MDA-MB-231; 6.25ug (log conc. 0.8)) | % viability (MDA-MB-231; 25ug (log conc. 1.4)) | IC50 (MCF-10A) | further results
1 | 122 ± 5.93 µg/mL (≈ 369 µM) | O=C(OCc1cc(=O)oc2cc(O)ccc12)c1ccc(Cl)cc1 [Compound 3, (7-Hydroxy-2-oxo-2H-chromen-4-yl)methyl 4-chlorobenzoate] | 95.8% | 83.9% | 72.9% | 61.2% | 52.7% | 36.6 ± 0.74 µM | 12.1 ± 0.74 µg/mL | 72.04% | 65.12% | 53.704% | 45.5556% | 35.679% | 67.5 ± 1.22 µM | 22.3 ± 1.22 µg/mL | 76.24% | 65.98% | 58.685% | 49.2762% | 369 ± 5.93 µM | % viability (MDA-MB-231; 100ug (log conc. 2)): 40.41%; IC50 (EGFR; [5]): 0.974 µM; IC50 (EGFR; EGFR inhibition IC50): 0.974 ± 0.06 µM; EGFR %inh (EGFR; conc 0.01 (unit not given)): 17%; EGFR %inh (EGFR; conc 0.1 (unit not given)): 36%; EGFR %inh (EGFR; conc 1 (unit not given)): 60%; EGFR %inh (EGFR; conc 10 (unit not given)): 85%; Percentage above Reference IC50 (potency relative to erlotinib) (EGFR; reference Erlotinib): 8.624%
2 | 41.6 ± 2.03 µg/mL (≈ 127 µM) | COc1ccccc1C(=O)OCc1cc(=O)oc2cc(O)ccc12 [Compound 4, (7-Hydroxy-2-oxo-2H-chromen-4-yl)methyl 2-methoxybenzoate] | 76.8% | 69.5% | 61.1% | 53.6% | 44.3% | 17.2 ± 0.34 µM | 5.6 ± 0.34 µg/mL | 68.369% | 58.612% | 49.509% | 38.9% | 30.9103% | 6.4 ± 0.11 µM | 2.08 ± 0.11 µg/mL | 60.769% | 51.538% | 43.254% | 34.142% | 128 ± 2.03 µM | % viability (MDA-MB-231; 100ug (log conc. 2)): 25.2071%; IC50 (EGFR; [5]): 0.438 µM; IC50 (EGFR; EGFR inhibition IC50): 0.438 ± 0.027 µM; EGFR %inh (EGFR; conc 0.01 (unit not given)): 25%; EGFR %inh (EGFR; conc 0.1 (unit not given)): 46%; EGFR %inh (EGFR; conc 1 (unit not given)): 70%; EGFR %inh (EGFR; conc 10 (unit not given)): 87%; Percentage above Reference IC50 (potency relative to erlotinib) (EGFR; reference Erlotinib): 19.178%
3 | 27.6 ± 1.35 µg/mL (≈ 84 µM) | O=C(COc1ccc2c(CCl)cc(=O)oc2c1)c1ccccc1 [Compound 5, 4-(Chloromethyl)-7-(2-oxo-2-phenylethoxy)-2H-chromen-2-one] | 74.4% | 66.7% | 57.6% | 49.9% | 43.5% | 39.5 ± 0.79 µM | 13 ± 0.79 µg/mL | 67.523% | 64.281% | 52.844% | 47.217% | 38.104% | 5.8 ± 0.1 µM | 1.91 ± 0.1 µg/mL | 61.18% | 50.473% | 42.019% | 33.628% | 83.9 ± 1.35 µM | % viability (MDA-MB-231; 100ug (log conc. 2)): 22.3344%; IC50 (EGFR; EGFR IC50, lab report 01-09-2021, 04 compounds, reference Erlotinib): 0.316 µM; IC50 (EGFR; EGFR inhibition IC50): 0.316 ± 0.0066 µM; inhibition at 10 pg/mL (EGFR; read-out: EGFR %inh): 29%; inhibition at 0.0001 µg/mL (EGFR; read-out: EGFR %inh): 50%; inhibition at 0.001 µg/mL (EGFR; read-out: EGFR %inh): 70%; inhibition at 0.01 µg/mL (EGFR; read-out: EGFR %inh): 90%; Percentage above Reference IC50 (potency relative to erlotinib) (EGFR; reference Erlotinib): 54.886%
4 | 41.9 ± 2.04 µg/mL (≈ 101 µM) | O=C(COc1ccc2c(COC(=O)c3ccccc3)cc(=O)oc2c1)c1ccccc1 [Compound 7, [2-Oxo-7-(2-oxo-2-phenylethoxy)-2H-chromen-4-yl]methyl benzoate] | 78.3% | 71.5% | 59.2% | 53.7% | 45.1% | 77.5 ± 1.94 µM | 32.1 ± 1.94 µg/mL | 83.43% | 71.93% | 62.508% | 52.7829% | 40.856% | 56.7 ± 1.28 µM | 23.5 ± 1.28 µg/mL | 75.96% | 68.64% | 59.243% | – | 101 ± 2.04 µM | anti-proliferative activity against MCF-7 (in words) (MCF-7): diminished the activity; % viability (MDA-MB-231; 100ug (log conc. 2)): 38.991%; anti-proliferative activity against MDA-MB-231 (in words) (MDA-MB-231): poor anti-proliferative activity; IC50 (EGFR; [5]): 0.333 µM; IC50 (EGFR; EGFR inhibition IC50): 0.341 ± 0.019 µM; EGFR %inh (EGFR; conc 0.01 (unit not given)): 30%; EGFR %inh (EGFR; conc 0.1 (unit not given)): 42%; EGFR %inh (EGFR; conc 1 (unit not given)): 67%; EGFR %inh (EGFR; conc 10 (unit not given)): 89%; Percentage above Reference IC50 (potency relative to erlotinib) (EGFR; reference Erlotinib): 24.633%
5 | 12.4 ± 0.6 µg/mL (≈ 22.8 µM) | COc1cccc2c1C(=O)c1c(O)c3c(c(O)c1C2=O)C[C@@](O)(C(=O)CO)C[C@@H]3O[C@H]1C[C@H](N)[C@H](O)[C@H](C)O1 [Doxorubicin, reference compound] | 74% | 63.5% | 55.4% | 44.6% | 35.9% | 5.6 ± 0.18 µM | 3.04 ± 0.18 µg/mL | 62.95% | 52.16% | 46.435% | 38.2693% | 28.946% | 7.3 ± 0.22 µM | 3.98 ± 0.22 µg/mL | – | – | – | 40.9788% | 22.8 ± 0.6 µM | % viability (MCF-7; MCF7, 0.4ug (log conc. -0.4089)): 62.9494%; % viability (MCF-7; MCF7, 1.6ug (log conc. 0.1931)): 52.1633%; % viability (MCF-7; MCF7, 6.25ug (log conc. 0.7959)): 46.4351%; % viability (MCF-7; MCF7, 100ug (log conc. 2)): 28.9458%; % viability (MDA-MB-231; 0.4ug (log conc. -0.41), listed as Dox): 63.56% and 63.5613%; % viability (MDA-MB-231; 1.6ug (log conc. 0.19), listed as Dox): 55.84% and 55.8373%; % viability (MDA-MB-231; 6.25ug (log conc. 0.8), listed as Dox): 46.58% and 46.5802%; % viability (MDA-MB-231; 100ug (log conc. 2), listed as Dox): 29.599% and 29.5991%; % viability (MCF-10A; MCF10a cells, 0.4ug, listed as Dox): 73.9934%; % viability (MCF-10A; MCF10a cells, 1.6ug, listed as Dox): 63.4983%; % viability (MCF-10A; MCF10a cells, 6.25ug (6.3ug), listed as Dox): 55.4455%; % viability (MCF-10A; MCF10a cells, 100ug, listed as Dox): 35.9076%; IC50 (MCF-10A; listed as DOX): 12.4 µM
6 | – | O=c1cc(CCl)c2ccc(O)cc2o1 [Compound 1, 4-chloromethyl-7-hydroxycoumarin] | – | – | – | – | – | 115 ± 1.47 µM | 24.3 ± 1.47 µg/mL | 77.743% and 77.74% | 67.269% and 67.27% | 59.663% and 59.66% | 49.002% and 49% | 41.1471% and 41.15% | 354 ± 4.06 µM | 74.5 ± 4.06 µg/mL | 88.396% and 88.4% | 77.133% and 77.13% | 69.01% | 56.655% and 56.66% | 442 ± 4.53 µM | IC50 at 48 h (in vitro): 93 ± 4.53 µg/mL (≈ 442 µM); viability at 48 h, 0.4 ug (in vitro): 84%; viability at 48 h, 1.6 ug (in vitro): 75.6%; viability at 48 h, 6.25 ug (in vitro): 67.5%; viability at 48 h, 25 ug (in vitro): 57%; viability at 48 h, 100 ug (in vitro): 50.1%; anti-proliferative activity against MCF-7 (in words) (MCF-7): devoid of activity; % viability (MDA-MB-231; 100ug (log conc. 2)): 48.4642% and 48.46%; anti-proliferative activity against MDA-MB-231 (in words) (MDA-MB-231): devoid of activity; % viability (MCF-10A; MCF10a, 0.4ug (log conc. -0.41)): 84.01%; % viability (MCF-10A; MCF10a, 1.6ug (log conc. 0.19)): 75.58%; % viability (MCF-10A; MCF10a, 6.25ug (log conc. 0.8)): 67.49%; % viability (MCF-10A; MCF10a, 25ug (log conc. 1.4)): 56.99%; % viability (MCF-10A; MCF10a, 100ug (log conc. 2)): 50.09%

Row | SMILES | IC50 at 48 h (in vitro; [1]) | viability at 48 h, 0.4 ug (in vitro; [1]) | viability at 48 h, 1.6 ug (in vitro; [1]) | viability at 48 h, 6.25 ug (in vitro; [1]) | viability at 48 h, 25 ug (in vitro; [1]) | viability at 48 h, 100 ug (in vitro; [1]) | IC50 (MCF-7; MCF7, read-out: MCF-7 IC50) | IC50 (MCF-7; [2]) | % viability (MCF-7; MCF7, 0.4ug) | % viability (MCF-7; MCF7, 1.6ug) | % viability (MCF-7; MCF7, 6.3ug) | % viability (MCF-7; MCF7, 25ug) | % viability (MCF-7; MCF7, 100ug) | IC50 (MDA-MB-231; [3]) | IC50 (MDA-MB-231; [4]) | % viability (MDA-MB-231; 0.4ug (log conc. -0.41)) | % viability (MDA-MB-231; 1.6ug (log conc. 0.19)) | % viability (MDA-MB-231; 6.25ug (log conc. 0.8)) | % viability (MDA-MB-231; 25ug (log conc. 1.4)) | IC50 (MCF-10A) | further results
7 | COc1ccccc1C(=O)OCc1cc(=O)oc2cc(OC(C)=O)ccc12 [Compound 15, (7-Acetoxy-2-oxo-2H-chromen-4-yl)methyl 2-methoxybenzoate] | 115 ± 5.62 µg/mL (≈ 312 µM) | 86% | 78.2% | 68.2% | 60.1% | 50.8% | 17.1 ± 0.38 µM | 6.3 ± 0.38 µg/mL | 67.97% | 58.26% | 50.063% | 42.623% | 31.337% | 74.9 ± 1.52 µM | 27.9 ± 1.52 µg/mL | 76.72% | 65.9% | 56.927% | 46.8873% | 312 ± 5.62 µM | anti-proliferative activity against MCF-7 (in words) (MCF-7): moderate anti-proliferative activity; % viability (MDA-MB-231; 100ug (log conc. 2)): 37.745%
